Results taken from US11084833B2, “Antibacterial agents against D,D- and L,D-transpeptidases” (priority 2016, dated 2021).
Read-outs that look alike come from different tables or passages of the source.

Columns and labels:
[1] = tested on: Mycobacterium tuberculosis; assay: Broth dilution MIC; assay type: cell-based; conditions: 336 h, end point reading at 2 weeks
[2] = tested on: Methicillin Resistant Staphylococcus aureus; assay: Broth dilution MIC; assay type: cell-based; conditions: overnight incubation
Enterobacter cloacae = assay: Broth dilution MIC; assay type: cell-based; conditions: overnight incubation
[3] = tested on: Methicillin Susceptible Staphylococcus aureus; assay: Broth dilution MIC; assay type: cell-based; conditions: overnight incubation
Pseudomonas aeruginosa = assay: Broth dilution MIC; assay type: cell-based; conditions: overnight incubation
[4] = tested on: Actinobacter baumannii 6 M-1b; assay: Broth dilution MIC; assay type: cell-based; conditions: overnight incubation
Klebsiella pneumoniae = assay: Broth dilution MIC; assay type: cell-based; conditions: overnight incubation
LdtMt2 [5] = biological target: T1, LdtMt2 (Mycobacterium tuberculosis, UniProt I6Y9J2); assay: Nitrocefin hydrolyzing activity after incubation with β-lactams; assay type: biochemical, M. tuberculosis
[6] = tested on: dehydropepetidase-1 (DHP-1); conditions: cited from earlier work
LdtMt2 [7] = biological target: T1, LdtMt2; assay: biochemical; design: species or system M. tuberculosis; conditions: non-linear regression, read-out: kinact/Kapp ratio (converted)
M. tuberculosis H37Rv = assay type: in vivo, BALB/c mice; conditions: for gross lung lesions: either alone or in combination with rifampin, end of treatment
LdtMt2 [8] = biological target: T1, LdtMt2; assay type: binding, M. tuberculosis; conditions: for acyl-enzyme adduct mass: UPLC-MS
[9] = biological target: penicillin binding protein DacB2 (Mycobacterium tuberculosis, UniProt I6Y204); assay: UPLC-MS analysis of acyl-enzyme adducts
LdtMab2 [10] = assay: UPLC-HRMS analysis of L,D-transpeptidase/β-lactam adducts; assay type: binding, Mycobacterium abscessus; conditions: over both the non-carbapenems and carbapenems tested
LdtMt1 [11] = biological target: T2, LdtMt1 (Mycobacterium tuberculosis, UniProt O53638); assay type: binding, M. tuberculosis
LdtMt1 [12] = biological target: T2, LdtMt1; assay: UPLC-MS analysis of acyl-enzyme adducts; assay type: binding, M. tuberculosis
LdtKp = assay: UPLC-HRMS analysis of L,D-transpeptidase/β-lactam adducts; assay type: binding, Klebsiella pneumoniae; conditions: over both the non-carbapenems and carbapenems tested
LdtMab1 [13] = assay: Isothermal titration calorimetry; assay type: binding, M. abscessus
LdtMab2 [14] = assay type: binding, M. abscessus
LdtMab1 [15] = assay: UPLC-MS analysis of acyl-enzyme adducts; assay type: binding, Mycobacterium abscessus; conditions: over both the non-carbapenems and carbapenems tested
LdtPa = assay: UPLC-MS analysis of acyl-enzyme adducts; assay type: binding, Pseudomonas aeruginosa; conditions: over both the non-carbapenems and carbapenems tested
LdtCl = assay: UPLC-HRMS analysis of L,D-transpeptidase/β-lactam adducts; assay type: binding, Enterobacter cloacae; conditions: over both the non-carbapenems and carbapenems tested
LdtMt2 [16] = biological target: T1, LdtMt2; assay type: binding, M. tuberculosis
[17] = Enterobacter cloacae, read-out: MIC
[18] = following incubation with β-lactam
[19] = equimolar mixture of faropenem, doripenem, biapenem and tebipenem

T1 sequence (I6Y9J2 35-408 limits assumed): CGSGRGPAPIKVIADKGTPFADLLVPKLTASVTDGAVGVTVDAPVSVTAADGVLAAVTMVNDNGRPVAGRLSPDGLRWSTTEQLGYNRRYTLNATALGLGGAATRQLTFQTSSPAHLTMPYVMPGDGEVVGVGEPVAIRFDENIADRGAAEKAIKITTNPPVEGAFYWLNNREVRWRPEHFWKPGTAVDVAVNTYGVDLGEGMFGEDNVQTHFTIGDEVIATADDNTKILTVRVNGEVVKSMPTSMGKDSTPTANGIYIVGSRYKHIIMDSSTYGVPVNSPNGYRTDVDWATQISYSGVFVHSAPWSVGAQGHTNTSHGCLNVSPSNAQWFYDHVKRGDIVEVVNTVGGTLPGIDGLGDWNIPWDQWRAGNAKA
T2 sequence (O53638 29-251): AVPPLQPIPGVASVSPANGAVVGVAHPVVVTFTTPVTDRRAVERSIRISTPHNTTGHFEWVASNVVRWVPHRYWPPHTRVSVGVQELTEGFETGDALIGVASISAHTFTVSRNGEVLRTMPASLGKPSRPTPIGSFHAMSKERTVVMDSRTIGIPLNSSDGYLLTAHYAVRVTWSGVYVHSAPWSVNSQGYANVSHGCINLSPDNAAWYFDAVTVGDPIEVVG
penicillin binding protein DacB2, sequence (I6Y204 23-291): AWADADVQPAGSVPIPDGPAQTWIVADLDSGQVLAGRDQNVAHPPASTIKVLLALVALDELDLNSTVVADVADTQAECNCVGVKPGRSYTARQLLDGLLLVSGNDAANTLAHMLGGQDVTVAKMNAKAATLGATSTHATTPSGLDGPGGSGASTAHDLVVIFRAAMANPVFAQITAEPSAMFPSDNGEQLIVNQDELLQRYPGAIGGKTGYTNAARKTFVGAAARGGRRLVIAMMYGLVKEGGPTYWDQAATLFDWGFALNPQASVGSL

C[C@@H](O)C1C(=O)N2C(C(=O)[O-])=C(SC3CN(C4=NCCS4)C3)SC12.[K+] (stereo in doubt) [Compound T405, Potassium (5S,6R)-3-((1-(4,5-dihydrothiazol-2-yl)azetidin-3-yl)thio)-6-((R)-1-hydroxyethyl)-7-oxo-4-thia-1-azabicyclo[3.2.0]hept-2-ene-2-carboxylate]
MIC [1]: 0.5 to 1 µg/mL
MIC [2]: 0.03 to 0.06 µg/mL
MIC (Enterobacter cloacae; [17]): 0.25 to 0.5 µg/mL
MIC [3]: 0.03 to 0.06 µg/mL
MIC (Pseudomonas aeruginosa): 4 to 8 µg/mL
MIC [4]: 4 to 8 µg/mL
MIC (Klebsiella pneumoniae): 0.125 to 0.25 µg/mL

C[C@@H](O)[C@H]1C(=O)N2C(C(=O)[O-])=C(SC3CNC(CNS(N)(=O)=O)C3)S[C@H]12.[K+] (stereo in doubt) [Compound T409, Potassium (5R,6S)-6-((R)-1-hydroxyethyl)-7-oxo-3-(((3R,5R)-5-((sulfamoylamino)methyl)pyrrolidin-3-yl)thio)-4-thia-1-azabicyclo[3.2.0]hept-2-ene-2-carboxylate]
MIC [1]: 0.5 to 1 µg/mL

C[C@@H](O)[C@H]1C(=O)N2C(C(=O)[O-])=C(SC3CNC(C(=O)N(C)C)C3)S[C@H]12.[K+] (stereo in doubt) [Compound T410, Potassium (5R,6S)-3-(((3R,5R)-5-(dimethylcarbamoyl)pyrrolidin-3-yl)thio)-6-((R)-1-hydroxyethyl)-7-oxo-4-thia-1-azabicyclo[3.2.0]hept-2-ene-2-carboxylate]
MIC [1]: 8 to 16 µg/mL
MIC (Enterobacter cloacae; [17]): 1 to 2 µg/mL
MIC (Pseudomonas aeruginosa): 0.5 to 1 µg/mL
MIC [4]: 0.5 to 1 µg/mL
MIC (Klebsiella pneumoniae): 2 to 4 µg/mL

CCCSC1=C(C(=O)[O-])N2C(=O)[C@H]([C@@H](C)O)[C@H]2S1.[K+] [Compound T406, Potassium (5R,6S)-6-((R)-1-hydroxyethyl)-3-propylthio-7-oxo-4-thia-1-azabicyclo[3.2.0]hept-2-ene-2-carboxylate]
MIC [1]: 0.5 to 1 µg/mL
MIC (Enterobacter cloacae; [17]): 4 to 8 µg/mL
MIC [4]: 4 to 8 µg/mL
MIC (Klebsiella pneumoniae): 0.25 to 0.5 µg/mL

C[C@@H](O)[C@H]1C(=O)N2C(C(=O)[O-])=C(SCCO)S[C@H]12.[K+] [Compound T407, Potassium (5R,6S)-6-((R)-1-hydroxyethyl)-3-((2-hydroxyethyl)thio)-7-oxo-4-thia-1-azabicyclo[3.2.0]hept-2-ene-2-carboxylate]
MIC [1]: 2 to 4 µg/mL
MIC (Klebsiella pneumoniae): 8 to 16 µg/mL

COC(=O)CCSC1=C(C(=O)[O-])N2C(=O)[C@H]([C@@H](C)O)[C@H]2S1.[K+] [Compound T408, Potassium (5R,6S)-6-((R)-1-hydroxyethyl)-3-((3-methoxy-3-oxopropyl)thio)-7-oxo-4-thia-1-azabicyclo[3.2.0]hept-2-ene-2-carboxylate]
MIC [1]: 0.5 to 1 µg/mL
MIC (Enterobacter cloacae; unit as printed for T408): 4-8 g/mL
MIC [4]: 16 to 32 µg/mL
MIC (Klebsiella pneumoniae): 8 to 16 µg/mL

C[C@@H](O)[C@H]1C(=O)N2C(C(=O)[O-])=C(SC3Cn4cnc[n+]4C3)[C@H](C)[C@H]12 (stereo partly drawn) [biapenem]
inhibition of nitrocefin hydrolysis (LdtMt2 [5]; [18]): robustly inhibited
inactivation by DHP-1 [6]: resistant to inactivation by DHP-1
kinact/KI (LdtMt2 [7]): 3830 M⁻¹ s⁻¹
gross lung lesions (M. tuberculosis H37Rv): prevented the development of gross lung lesions
activity on bacterial load (CFUs) in the lungs (M. tuberculosis H37Rv; mouse, in vivo): bacteriostatic activity
adduct formation (LdtMt2 [8]): Stable adducts could be detected

CC1(C)S[C@@H]2[C@H](NC(=O)C(C(=O)O)c3ccccc3)C(=O)N2[C@H]1C(=O)O (stereo partly drawn) [carbenicillin]
adduct mass ([9]; UPLC-MS): +379 Da
adduct formation (LdtMt2 [8]): failed to bind

CC(=O)OCC1=C(C(=O)O)N2C(=O)[C@@H](NC(=O)Cc3cccs3)[C@H]2SC1 [cephalothin]
inhibition of nitrocefin hydrolysis (LdtMt2 [5]): comparable inhibitory activity

C[C@@H](O)[C@H]1C(=O)N2C(C(=O)O)=C(S[C@@H]3CN[C@H](CNS(N)(=O)=O)C3)[C@H](C)[C@H]12 [doripenem]
inhibition of nitrocefin hydrolysis (LdtMt2 [5]; [18]): robustly inhibited
acyl-enzyme adduct mass (LdtMt2 [8]): 123 Da

C[C@@H](O)[C@H]1C(=O)N2C(C(=O)O)=C([C@H]3CCCO3)S[C@H]12 [faropenem]
inhibition of nitrocefin hydrolysis (LdtMt2 [5]; [18]): robustly inhibited
preferential reaction in β-lactam mixtures (LdtMab2 [10]): preferentially reacted with faropenem
ITC binding (LdtMt1 [11]): single-modality binding
acyl-enzyme adduct mass (LdtMt1 [12]; UPLC-MS): +86 Da
adduct detected in competition assay (LdtMt1 [12]; [19]): the only adduct detected
preferential reaction in β-lactam mixtures (LdtKp): preferentially reacted with faropenem
ITC binding (LdtMab1 [13]): Binding
species detected in competition assay [9]: the only species detected
gross lung lesions (M. tuberculosis H37Rv): prevented the development of gross lung lesions
ITC binding (LdtMab2 [14]): Binding
preferential reaction in β-lactam mixtures (LdtMab1 [15]): preferentially reacted with faropenem
preferential reaction in β-lactam mixtures (LdtPa): preferentially reacted with faropenem
preferential reaction in β-lactam mixtures (LdtCl): preferentially reacted with faropenem
ITC binding (LdtMt2 [16]): single-modality binding
acyl-enzyme adduct mass (LdtMt2 [8]): +86 Da
adduct detected in competition assay (LdtMt2 [8]; [19]): the only adduct detected

C[C@@H](O)[C@H]1C(=O)N2C(C(=O)O)=C(SC3CN(C4=NCCS4)C3)[C@H](C)[C@H]12 [tebipenem]
ITC binding (LdtMt1 [11]): single-modality binding
ITC binding (LdtMab1 [13]): Binding
ITC binding (LdtMab2 [14]): Binding
ITC binding (LdtMt2 [16]): single-modality binding
